Values after ≈ are worked out from the molar mass of the structure shown.

This assay has as its system HCT-116. Briefly: Cytotoxicity against human HCT116 cells. The format is functional, cell-based.
In general, IC50 refers to the concentration needed to halve the response being measured. A high value points to lower potency. `CNCC(O)c1cc(Br)c(OCCCNC(=O)C2=NO[C@@]3(CC(Br)=C(OC)C(Br)=CO3)[C@H]2O)c(Br)c1` (stereo partly drawn) [PSAMMAPLYSIN C]: it took 3 µg/mL (≈ 3.93 µM) to reach half-maximal inhibition (IC50).

The compound `COC1=C(Br)C[C@]2(OC=C1Br)ON=C(C(=O)NCCCOc1c(Br)cc(CCN)cc1Br)[C@@H]2O` [PSAMMAPLYSIN A] came in with an IC50 of 6 µg/mL (≈ 8.19 µM).

In turn, `COC1=C(Br)C[C@]2(OC=C1Br)ON=C(C(=O)NCCCOc1c(Br)cc(C(O)CN)cc1Br)[C@@H]2O` (stereo partly drawn) [PSAMMAPLYSIN B] returned a concentration for half-maximal inhibition (IC50) of 6 µg/mL (≈ 8.01 µM).

Values taken from ChEMBL document CHEMBL1149719, “Psammaplysin C: a new cytotoxic dibromotyrosine-derived metabolite from the marine sponge Druinella (= Psammaplysilla) purpurea” (J Nat Prod, 1992).
